# Results reported in patent US10206900B2, “Treatments for fibrotic diseases” (MOR RESEARCH APPLICATIONS LTD., priority 2013, dated 2019).
# What was measured:
# [1] = tested on: c57Black mice; assay: Dispase-induced PVR in mice (H&E histology); format: in vivo; details: treated 96 hour post-dispase, H&E 96 hours later
# Procedure: 96 hour post-treatment, the mice were further treated with 5Z-7-oxozeaenol left untreated, and 96 hours later, mice were sacrificed, eyes were enucleated and stained with hematoxylin and eosin (H&E). […] As shown in the middle panel, dispase caused PVR, manifested by loss of normal cellular architecture of the retina, presence of numerous inflammatory cells and presence of RPE cells throughout all retinal layers compared to the control (left panel). As shown in the right panel, treatment with 5Z-7-oxozeaenol maintained the normal retinal structure and prevented the development of the fibrotic response. 7-8 week old c57Black mice were treated or left untreated with dispase to generate PVR in the mice. 96 hour post-treatment, the mice were treated with 5Z-7-oxozeaenol or left untreated, and 96 hour later, mice were sacrificed, eye were […] and stained with hematoxylin and eosin (H&E).
# [2] = tested on: E-cadherin; assay: E-cadherin immunostaining in RPE cells; format: cell-based; details: 1 μM prior to TGF-β1 stimulation
# Procedure: FIG. 3A: RPE cells were plated on fibronectin-coated glass coverslips, serum-starved for 16 hours, pretreated with 5Z-7-oxozeaenol (1 μM) or SB431542 (10 μM), or DMSO for 1 hour, then treated with or without TGF-β1 for 2 days. Following treatment, the cells were stained with rhodamine-phalloidin (actin fibers-red) and DAPI (blue) and visualized by confocal microscopy. Scale bars: […]. FIG. 3B: Serum-starved RPE cells pretreated with 5Z-7-oxozeaenol (1 μM) or DMSO for 1 hour, and were exposed to TGF-β as in FIG. 3A. Total RNA was extracted at each time point and qPCR was performed. Transcription levels of CTGF were determined after 6 h, 16 h and 24 h. Bars represent the specific mRNA amount relative to GAPDH mRNA in the same samples. All experiments were performed in triplicates. A representative histogram from two independent experiments is shown. FIG. 3C: RPE cells were plated and treated as in FIG. 3A. Following treatment, the cells were immunostained with E-cadherin antibodies (green) and DAPI (blue). Representative photographs of two independent experiments are shown. A recent publication has shown that down-regulation of the cell-cell adhesion protein E-cadherin, was considered a hallmark of EMT in RPE cells ([…] et al., Invest Ophthalmol Vis Sci 2010, 51:2755-2763). […]
# [3] = tested on: TGF-β cascades in epithelial lung cells; assay: Western blot of TGF-β cascades in A549 lung cells; format: cell-based; details: 1 μM for 1 hour, TGF-β 2.5 ng/ml
# Procedure: FIG. 14: Inhibition of TAK1 by 5z-7 abolishes the activation of TGF-β cascades in epithelial lung cells: Serum-starved A549 cells were pretreated with or without with 5Z-7-oxozeaenol (1 μM) for 1 hour and then with TGF-β (2.5 ng/ml) for the indicated times. Total protein extracts were analyzed by western blot using the indicated antibodies. […] Similarly, A549 lung cells were pretreated with or without with 5Z-7-oxozeaenol (1 μM) for 1 hour and then with TGF-β (2.5 ng/ml).
# [4] = tested on: Smad2/3; assay: Smad2/3 phosphorylation by immuno-blot in HT29 colon cells; format: cell-based; details: HT29 Human colon cells, TGF-β treatment, versus untreated cells
# Procedure: FIG. 11. Inhibition of TAK1 abolishes the activation of TGF-β cascades in colon cells. TGF-β1 up-regulates-Smad 2/3 and p38 activation via TAK1 activity in colon cells. HT29 Human colon cells were treated with or without 5Z-7-oxozeaenol followed by TGF-β treatment. Smad2/3 and p38 phosphorylation patterns were examined by immuno-blots. HT29 Human colon cells were treated as in the previous examples with or without 5Z-7-oxozeaenol, followed by TGF-β treatment. Inhibition of TAK1 was assayed by observation of Smad2/3 and p38 phosphorylation patterns by immuno-blots.
# [5] = tested on: RPE cells; assay: Floating collagen matrix contraction assay in full serum; format: cell-based; details: 1 μM, full medium, 24 hours, control cells 50%
# Procedure: FIG. 5A: RPE cells were pre-treated with or without 5Z-7-oxozeaenol (1 μM) and seeded in collagen lattices in full medium. The experiments were performed in triplicates. Lattices were photo-documented after 24 hours and measured using Image-J software. […] Bars are Mean±SD. The transition of RPE cells to myofibroblasts is characterized, among other aspects, by increased contractile activity (Umazume et al., Invest Ophthalmol Vis Sci 2013, 54:1150-1159; Sakamoto et al., Curr Eye Res 1994, 13:451-459; West-Mays et al., Int J Biochem Cell Biol 2006, 38:1625-1631; Ma et al., Clinical & experimental ophthalmology 2012, 40:e76-86). To examine whether TAK1 is a general regulator of the EMT process affecting cell contractility, floating collagen matrix contraction assay was performed. The test was carried out in full serum with or without TAK1 inhibitor (FIGS. 5A and 5B). While in the control cells significant contraction was observed after 24 hours, reaching 50% of the initial size, TAK1 inhibition impaired the capacity of the cells to contract. The collagen lattice remained nearly 80% from the initial size (FIGS. 5A and B).
compound,measurement,setting,value
COc1cc(O)c2c(c1)/C=C/C[C@H](O)[C@H](O)C(=O)/C=C\C[C@H](C)OC2=O [5Z-7-oxozeaenol],development of the fibrotic response / retinal structure (PVR),[1],prevents the development of the fibrotic response
same,E-cadherin expression upon TGF-β1,[2],allowing normal E-cadherin expression
same,fibrotic affect stimulated by TGF-β (western blot),[3],abolishes the fibrotic affect
same,Smad2/3 phosphorylation,[4],significantly inhibited
same,collagen lattice area relative to initial size,[5],~80%
